Data: patent US20070208087A1, “Compounds, compositions and methods for the treatment of inflammatory diseases” (priority 2001, published 2007)
Several values for one entry are separate records, joined by “and”; a condition that tells them apart may be missing. Identical values can stand only once. Like-named read-outs stand apart in the source and are kept apart here.

Key:
Assay type in all cases: cell-based
[1] = system: EOC 13.31 microglial cells; experiment: NO release inhibition screen in LPS/IFNγ stimulated microglia, Griess reaction at 48 hours (Example 7); conditions: for μM NO release Avg / % inhibition / inhibition at 50 µM: 50 uM + 10 μg/ml LPS/10 ng/ml IFNγ, 48 hours; for % inhibition: 50 µM; for inhibition at 50 µM: Microglia, 48 h; for inhibition of NO release, in words: 50 uM, LPS/IFNγ stimulated microglia
Protocol: In this experiment, additional bis- and tris-dihydroxyaryl compounds were screened for their ability to inhibit nitric oxide release from microglial cells. Microglial cells stimulated with LPS/IFNγ release nitric oxide. […] This is a continuation of screening experiments. EOC 13.31 microglial cells were plated into 96 well plates. At 24 hours and at confluency, cells were treated with 10 μg/ml LPS/10 ng/ml IFNγ+50 uM bis- and tris-dihydroxyaryl compounds.

[2] = system: EOC 13.31 microglia cells; experiment: Inhibition of NO release from microglia following 24 hours pretreatment (Example 10); conditions: for inhibition at 50 µM: Microglia
Protocol: This experiment was designed to determine if pretreatment for 24 hours with bis- and tris-dihydroxyaryl compounds changes NO inhibition previously observed with concurrent exposure of bis- and tris-dihydroxyaryl compounds. […] This study seeks to determine if pretreatment with bis- and tris-dihydroxyaryl compounds increases NO release inhibition. EOC 13.31 microglia cells were plated at 1×10^6 cells/ml in 96 well plates. After 48 hours, confluent cells were exposed to 50 μM compound (stock 10 mM in DMSO) prepared in fresh cell culture media. After 24 hours, 10 μg/ml LPS and 10 ng/ml IFNγ was added to wells directly without a media change. Cells were incubated for a further 48 hours and nitric oxide release was measured using the Griess Reaction.

microglia = experiment: Ranking of NO release inhibition (Example 12); conditions: Microglia, ranking table
Text: The bis- and tris-dihydroxyaryl compounds were ranked in order of effectiveness for the inhibition of NO release as set out in Table 8.

[3] = system: TNF-α release from microglia; experiment: TNF-α release from LPS/IFNγ stimulated microglia, TNF-α ELISA (Example 11); conditions: for % inhibition: individual replicates; for TNF-α ELISA raw reading (not NO; the printed μM unit is unsupported): 3 replicates; for inhibition at 50 µM: Microglia
Protocol: Also, bis- and tris-dihydroxyaryl compound's ability to inhibit NO release strongly supports their interference with the inflammatory cascade and utlimately inhibition of inflammation. Microglia cells were plated at 1×10^5 cells/ml into 96 well plates. At day three, they were treated with 50 μM bis- and tris-dihydroxyaryl compound for 1 hour and then exposed to 10 μg/ml LPS+10 ng/ml IFNγ for 24 hours. 10 μl of media was removed and stored at −80° until TNF-α ELISA assays were performed. Samples were diluted 1:50 before running the TNF-α ELISA (kit commercially available from Sigma).

[4] = system: EOC 13.31 microglia cells; experiment: NO release inhibition in LPS/IFNγ stimulated microglia, concurrent treatment, Griess reaction at 24 hours (Example 6); conditions: 24 hours; for NO release, Avg: 50 μM; for inhibition at 50 µM: Microglia
Protocol: The purpose of this experiment was to screen compounds 3, 4, 21, 26, 51, 52, 66, and 78 for their ability to inhibit Nitric oxide release from microglia. […] EOC 13.31 microglia cells were plated into 96 well plates for 24 hours. Confluent cells were treated with 50 μM of the bis- and tris-dihydroxyaryl compounds either with or without stimulation at 1 pg/ml LPS, and 1 ng/ml IFNγ. NO release was measured at 24 hours using the Griess reaction which is a spectrophotometric measure of NO release (reagents from Promega).

[5] = single replicates, read-out: % inhibition
[6] = 50 μM pretreatment, read-out: inhibition of NO release following pretreatment
[7] = 50 uM compound, TNF-α release, 10 ug LPS and 10 ng IFNγ, 24 hours
[8] = 50 uM compound, TNF-α release, 10 ug LPS and 10 ng IFNγ, 24 hours, 50 µM
[9] = 50 uM compound, 10 ug LPS and 10 ng IFNγ, 24 hours
[10] = 50 uM pretreatment 24 hours, then LPS/IFNγ 48 hours, single replicates
[11] = 50 uM pretreatment 24 hours, then LPS/IFNγ 48 hours, read-out: Avg % Inhibition
[12] = 50 uM pretreatment 24 hours, then LPS/IFNγ 48 hours, single replicates, read-out: % inhibition
[13] = 24 h, 50 uM compound, TNF-α release, 10 ug LPS and 10 ng IFNγ, 24 hours, read-out: Avg % Inhibition

SMILES | μM NO release Avg [1] | % inhibition ([1]; single replicates) | inhibition at 50 µM ([1]; read-out: Avg. % Inhibition) | inhibition at 50 µM [1, 5] | inhibition at 50 µM (microglia) | Avg % Inhibition [3, 7] | % inhibition [3, 8] | TNF-α ELISA raw reading (not NO; the printed μM unit is unsupported) [3, 9] | also measured
CN1C2CCC1C(Cc1ccc(O)c(O)c1)C(=O)C2Cc1ccc(O)c(O)c1 (stereo not drawn) [Compound 19, 2,4-bis(3,4-dihydroxybenzyl)-3-tropinone] | 25.828 µM | 5.75% and 3.45% | 4.41% | 4.02% | 4% | – | – | – | inhibition at 50 µM [2, 6]: > 75%
O=C(CCC(=O)Nc1ccc(O)c(O)c1)Nc1ccc(O)c(O)c1 [Compound 66-2] | – | – | – | – | – | −13.70% | −14.08% and −17.70% and −9.32% | 0.889 µM and 0.838 µM and 0.867 µM | –
CN1C2CCC1C(Cc1ccc(O)c(O)c1)C(=O)C2Cc1ccc(O)c(O)c1 (stereo not drawn) [Compound 19-2] | – | – | – | – | – | 9.42% | 7.78% and 8.44% and 12.05% | 0.730 µM and 0.708 µM and 0.734 µM | Avg % Inhibition ([2]; 50 uM pretreatment 24 hours, then LPS/IFNγ 48 hours): 82.93%; % inhibition [2, 10]: 73.11% and 91.80% and 83.87%; OD values (printed under head μM NO release) [2, 10]: 0.135 and 0.161 and 0.195; μM NO release [2, 10]: 1.620 µM and 3.188 µM and 5.313 µM
Oc1ccc(CN2CCN(Cc3ccc(O)c(O)c3)CC2)cc1O [Compound 9, 1,4-bis(3,4-dihydroxybenzyl)piperazine] | 26.299 µM | −0.57% (2×) and 9.14% | 2.66% | – | 3% | – | – | – | –
O=C(Nc1ccc(O)c(O)c1)Nc1ccc(O)c(O)c1 [Compound 76, 1,3-bis(3,4-dihydroxyphenyl)urea] | 23.745 µM | 11.52% and 12.60% | 14.4% | 19.1% | 14% | – | – | – | % inhibition [2, 10]: 75.64% and 78.81%; inhibition at 50 µM [2, 11]: 76.3%; inhibition at 50 µM [2, 12]: 74.4%; inhibition at 50 µM [2, 6]: > 75%
O=C(C=Cc1ccc(O)c(O)c1)NCc1ccc(O)c(O)c1 [Compound 61, 3,4-dihydroxycinnamic acid 3,4-dihydroxybenzylamide] | 21.285 µM | 19.18% and 24.19% | 21.2% | 20.3% | 21% | – | −3.40% and −17.04% and −7.51% | – | inhibition at 50 µM [3, 13]: -9.32%; inhibition of NO release, in words [1]: effective inhibitors of NO release
O=C(Nc1ccc(O)c(O)c1)c1ccc(O)c(O)c1 [Compound 51, 3,4-dihydroxybenzoic acid 3,4-dihydroxyanilide] | – | – | – | – | – | – | – | – | NO release, Avg ([4]; Compound + LPS/IFNγ): 20.6633 µM; NO release, Avg ([4]; Compound Only (without LPS/IFNγ)): 1.2500 µM; inhibition at 50 µM ([4]; Compound + LPS/IFNγ, read-out: % inhibition of NO release): -11%; inhibition at 50 µM ([4]; Table 2 summary, LPS/IFNγ, read-out: % Inhibition (summary of inhibition of NO release)): -11%; % inhibition [2, 10]: 47.81% and 59.20%; inhibition at 50 µM [2, 11]: 56%; inhibition at 50 µM [2, 12]: 61.1%
Oc1ccc(Cc2ccc(O)c(O)c2)cc1O [Compound 3-2] | – | – | – | – | – | 29.41% | 28.11% and 32.65% and 27.48% | 0.593 µM and 0.627 µM and 0.623 µM | –
O=C(c1ccc(O)c(O)c1)C(O)c1ccc(O)c(O)c1 (stereo not drawn) [Compound 1, 3,4,3′,4′-tetrahydroxybenzoin] | 22.038 µM | 20.29% and 18.62% | 18.4% | 16.4% | 18% | – | −16.55% and −17.04% and −18.19% | – | inhibition at 50 µM [3, 13]: -17.3%
Oc1ccc(CCc2ccc(O)c(O)c2)cc1O [Compound 4-3] | – | – | – | – | – | 89.89% | 88.39% and 91.14% and 90.14% | 0.177 µM and 0.185 µM and 0.199 µM | inhibition of TNF-α release ([3]; 50 μM for 1 hour, then 10 μg/ml LPS + 10 ng/ml IFNγ for 24 hours): 89%
O=C(Nc1ccc(O)c(O)c1)c1ccc(O)c(O)c1 [Compound 51-4] | – | – | – | – | – | – | −20.13% and −17.25% and −11.34% | 0.907 µM and 0.870 µM and 0.925 µM | Avg % Inhibition [3, 8]: −16.24%
O=C(NCc1ccc(O)c(O)c1)C(=Cc1ccc(O)c(O)c1)NC(=O)c1ccc(O)c(O)c1 [Compound 21-2] | – | – | – | – | – | −23.18% | −25.92% and −23.45% and −20.16% | 0.924 µM and 0.904 µM and 0.939 µM | –
Cc1nc(-c2ccc(O)c(O)c2)cc(-c2ccc(O)c(O)c2)c1C#N [Compound 8, 4,6-bis(3,4-dihydroxyphenyl)-3-cyano-2-methylpyridine] | 25.265 µM | 8.03% and 2.30% and 9.14% | 6.49% | – | 92% | – | – | – | –
Oc1ccc(CN[C@@H]2CCCC[C@H]2NCc2ccc(O)c(O)c2)cc1O (relative stereo) [Compound 12, N,N′-bis(3,4-dihydroxybenzyl)-trans-1,2-diaminocyclohexane] | 18.976 µM | 26.72% and 33.23% | 31.6% | 34.9% | 32% | – | 15.81% and 25.24% and 10.54% | – | inhibition at 50 µM [3, 13]: 17.2%; inhibition of NO release, in words [1]: effective inhibitors of NO release
O=C(NCc1ccc(O)c(O)c1)Nc1ccc(O)c(O)c1 [Compound 77-1] | – | – | – | – | – | 2.58% | 4.66% and 4.16% and −1.10% | 0.756 µM and 0.788 µM and 0.753 µM | –
O=C(c1ccc(O)c(O)c1)N1CCN(C(=O)c2ccc(O)c(O)c2)CC1 [Compound 23, 1,4-bis(3,4-dihydroxybenzoyl)piperazine] | 23.394 µM | 13.60% and 9.70% | 13.4% | 16.9% | 13% | – | −23.78% and −15.89% and −17.96% | – | inhibition at 50 µM [3, 13]: -19.2%
O=C(Nc1ccc(O)c(O)c1)Nc1ccc(O)c(O)c1 [Compound 76-2] | – | – | – | – | – | −9.81% | −8.66% and −11.12% and −9.64% | 0.849 µM and 0.840 µM and 0.834 µM | –
C[C@@H]1C[C@H]2[C@@H]3CCC4=CC(=O)C=C[C@]4(C)[C@@]3(F)[C@@H](O)C[C@]2(C)[C@@]1(O)C(=O)CO [Dexamethasone, reference compound] | – | – | – | – | – | – | – | – | inhibition at 50 µM ([3]; 50 μM for 1 hour, then 10 μg/ml LPS + 10 ng/ml IFNγ for 24 hours, read-out: inhibition of TNF-α release): 72.4%
O=C(NCc1ccc(O)c(O)c1)Nc1ccc(O)c(O)c1 [Compound 77, 1-(3,4-dihydroxyphenyl)-3-(3,4-dihydroxybenzyl)urea] | 24.398 µM | 9.89% | 12.1% | 14.2% | 12% | – | – | – | % inhibition [2, 10]: 99.39%; inhibition at 50 µM [2, 11]: 96.8%; inhibition at 50 µM [2, 12]: 91.8%; inhibition at 50 µM [2, 6]: > 75%
O=C(Nc1ccc(O)c(O)c1)c1ccc(O)c(O)c1 [Compound 51-1] | – | – | – | – | – | – | −17.57% and −12.94% and −13.42% | 0.880 µM and 0.883 µM and 0.909 µM | Avg % Inhibition [3, 8]: −14.64%
